Test results as given in patent US20040044037A1, “Amidino-urea serotonin receptor ligands and compositions, their pharmaceutical uses, and methods for their snythesis” (priority 2003, published 2004).

Legend:
[1] = target: T1, human 5-HT1a receptors (Homo sapiens, UniProt P08908); test: Competition radioligand binding, h5-HT1a; details: [3H]5-CT; membranes of CHO K1 cells; read-out: Ki 5-HT1A
T1 construct: expressed in transfected cells; host or cells: CHO K1 cells
T1 sequence (P08908 1-422): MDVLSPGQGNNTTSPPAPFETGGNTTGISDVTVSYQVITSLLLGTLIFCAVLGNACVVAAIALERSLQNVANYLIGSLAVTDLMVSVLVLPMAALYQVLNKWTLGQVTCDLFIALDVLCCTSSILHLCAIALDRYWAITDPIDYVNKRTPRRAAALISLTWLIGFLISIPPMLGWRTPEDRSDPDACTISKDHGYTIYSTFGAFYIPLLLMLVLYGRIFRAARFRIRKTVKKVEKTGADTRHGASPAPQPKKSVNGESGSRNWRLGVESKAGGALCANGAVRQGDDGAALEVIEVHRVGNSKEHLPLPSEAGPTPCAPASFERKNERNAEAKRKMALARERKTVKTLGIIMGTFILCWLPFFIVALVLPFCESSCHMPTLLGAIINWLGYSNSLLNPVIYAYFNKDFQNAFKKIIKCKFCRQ
Experimental: (§1) Cells and Membrane Preparation: HEK 293 cells stably expressing human 5-HT7B (h5-HT7b) receptors were grown in Dulbecco's Modified Eagle's Medium (DMEM; Gibco) without sodium pyruvate and containing 4.5 g/L glucose, L-glutamine/penicillin-streptomycin (Gemini), 10% fetal bovine serum and 250 mg/l of the antibiotic, G418 (Geneticin) as previously described (Jasper, J. R., Kosaka, A., To, Z. P., Chang, D. J. and Eglen, R. M. (1997) Cloning, expression and pharmacology of a truncated splice variant of the human 5-ht7 receptor (h5-ht7b). Br. J. Pharmacol. 122(1):126-132.). Cell pellets were homogenized in approximately 50 mL of homogenization buffer (buffer A) containing: 50 mM Tris (pH 7.4), 2 mM EGTA, 0.32 M sucrose, 10 μM PMSF, 1 μg/mL leupeptin, 5 μg/mL Pepstatin A, and 5 μg/mL aprotinin using an UltraTurax homogenizer (Tekmar Company, Cincinnati, Ohio) at 80% maximum setting three times for 10 sec. Cell pellets were centrifuged at 4° C. at 1,500×g for 10 min in a Beckman GS-6R centrifuge. Pellets were resuspended in buffer A, homogenized and centrifuged as described above. Pooled supernatants were transferred to centrifuge bottles and centrifuged at 4° C. at 20,000×g for 30 min in a Beckman J2-HS centrifuge. Cell pellets were resuspended in buffer A and were centrifuged at 4° C. at 20,000×g for 30 min. Cell pellets were resuspended in buffer A and stored at −70° C. in aliquots of 2.5 mg/mL total membrane protein. Total membrane protein was assessed utilizing a BCA kit (Pierce; Rockford, Ill.). Membranes containing human 5-HT1a or 5HT2a receptors expressed in CHO K1 cells were prepared as described above.
(§2) Radioligand Binding Assays: For 5-HT7 saturation binding experiments, HEK-293 cell membranes expressing h5-HT7 receptors (5-10 μg membrane protein/well) were incubated in duplicate with [^3H]5-CT (approximately 0.2 nM) in binding assay buffer containing: 50 mM HEPES (pH 7.4), 0.5 mM EDTA, 10 mM MgCl2, 10 μM pargyline to inhibit monoamine oxidase activity, and 0.1% sodium ascorbate, in a final volume of 200 μL in 96-well polypropylene plates for 2 hours at 37° C. Nonspecific binding was determined by incubating membranes with 1 μM 5-HT. All radioligand binding assays were stopped by rapid filtration onto 96-well GF/C filter plates (Packard) soaked in 0.1% polyethylenimine. Filters were washed three times with ice-cold phosphate-buffered saline (PBS) wash buffer containing 50 mM NaPO4 (pH 7.4), 0.9% NaCl, 2 mM MgCl2 and 0.02% NaN3. The filters were then counted using liquid scintillation in a Packard Topcount scintillation counter.
(§3) Data Analysis: Radioligand binding experiments were analyzed with Prism™ (Graphpad, San Diego, Calif.), a computer graphics and statistics program. IC50 values and Hill slopes for compounds were generated by nonlinear regression using Prism™. Values for Ki calculated from IC50 values by the Cheng and Prussoff equation (Cheng, Y. and Prusoff, W. H., (1973), “Relationship between the inhibition constant (Ki) and the concentration of inhibitor which causes 50 per cent inhibition (I50) of an enzymatic reaction.” Biochemical Pharmacol. 22:3099-3108).

[2] = target: T2, human 5HT2a receptors (Homo sapiens, UniProt P28223); test: Competition radioligand binding, 5-HT2A; details: [3H]Ketanserin; membranes of CHO K1 cells; read-out: Ki 5-HT2A
T2 construct: expressed in transfected cells; host or cells: CHO K1 cells
Experimental: as §1, §2, §3

[3] = target: T3, human 5-HT6 (h5-HT6) receptors (Homo sapiens, UniProt P50406); test: Competition radioligand binding, h5-HT6; details: [3H]LSD; membranes of HEK-293 cells; read-out: Ki 5-HT6
T3 construct: purchased Receptor Biology, Inc. (Beltsville, Md.); host or cells: HEK-293 cells

[4] = target: T4, human 5-HT7B (h5-HT7b) receptors (Homo sapiens, UniProt P34969); test: Competition radioligand binding, h5-HT7b; details: [3H]5-CT; membranes of HEK 293 cells; read-out: Ki 5-HT7
T4 construct: expressed in transfected cells
Source text: The compounds of the invention interact with 5-HT receptors and show selectivity for 5-HT receptors. The 5-HT receptor binding properties of the compounds are identified by competitive radioligand binding assays wherein membranes prepared from transfected cells expressing the 5-HT receptor subtype of interest. “Binding constants” refers herein to Ki values measured by inhibition of the binding of radiolabelled ligands that are selective for the 5-HT receptor type being studied. For 5-HT7 receptors, Ki values are determined by measuring the inhibition of 5-carboxamidotryptamine (5-CT) binding, wherein 5-HT7 receptors were incubated with the radiolabelled high affinity ligand, 5-carboxamidotryptamine ([^3H]5-CT), in the presence and absence of the compounds of the invention, at varying concentrations. The compounds of the invention have high binding affinity for serotonin receptors as measured by dissociation constant Ki. […] “Selectivity” for receptor type, in the context of this invention, refers to the ratio of binding constants for the two receptor types being compared. […] The compounds of the present invention preferably show selectivity for 5-HT7 receptors over other serotonin receptor subtypes of greater than about 100. The compounds of the present invention also preferably show selectivity for 5-HT7 receptors over other receptor types, such as dopamine D2, of greater than about 100.
as §1
as §2, with “counter. […]” for “counter.”

[5] = target: T5, human D2S dopamine (hD2S-DA) receptors (Homo sapiens, UniProt P14416); test: Competition radioligand binding, hD2S dopamine; details: [3H]Spiperone; membranes of A9 L cells; read-out: Ki D2
T5 construct: purchased Receptor Biology, Inc. (Beltsville, Md.); host or cells: A9 L cells
T5 sequence (P14416 1-414 isoform P14416-2): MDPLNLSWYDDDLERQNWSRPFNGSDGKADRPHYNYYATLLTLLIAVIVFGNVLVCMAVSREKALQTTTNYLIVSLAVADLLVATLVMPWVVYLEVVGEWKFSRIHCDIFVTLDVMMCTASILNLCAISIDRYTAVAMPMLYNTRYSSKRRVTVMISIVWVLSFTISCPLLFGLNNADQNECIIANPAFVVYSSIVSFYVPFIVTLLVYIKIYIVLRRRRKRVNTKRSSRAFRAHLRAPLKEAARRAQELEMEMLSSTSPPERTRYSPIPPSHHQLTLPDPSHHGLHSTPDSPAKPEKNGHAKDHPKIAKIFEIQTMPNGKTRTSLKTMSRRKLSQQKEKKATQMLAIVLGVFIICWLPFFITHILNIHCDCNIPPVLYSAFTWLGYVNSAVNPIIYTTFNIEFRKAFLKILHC

T4 sequence (P34969 1-432 limits assumed): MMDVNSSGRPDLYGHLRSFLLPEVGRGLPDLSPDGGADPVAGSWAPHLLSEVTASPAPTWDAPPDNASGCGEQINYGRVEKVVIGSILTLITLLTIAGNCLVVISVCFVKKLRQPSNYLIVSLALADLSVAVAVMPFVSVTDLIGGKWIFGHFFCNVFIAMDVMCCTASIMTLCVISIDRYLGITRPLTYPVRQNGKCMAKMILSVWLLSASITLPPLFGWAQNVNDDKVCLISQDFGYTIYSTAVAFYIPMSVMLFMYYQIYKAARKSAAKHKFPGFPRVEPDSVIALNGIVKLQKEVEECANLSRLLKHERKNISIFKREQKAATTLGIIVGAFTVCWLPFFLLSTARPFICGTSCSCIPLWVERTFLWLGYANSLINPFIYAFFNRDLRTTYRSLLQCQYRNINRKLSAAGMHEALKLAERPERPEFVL
T2 sequence (P28223 whole entry): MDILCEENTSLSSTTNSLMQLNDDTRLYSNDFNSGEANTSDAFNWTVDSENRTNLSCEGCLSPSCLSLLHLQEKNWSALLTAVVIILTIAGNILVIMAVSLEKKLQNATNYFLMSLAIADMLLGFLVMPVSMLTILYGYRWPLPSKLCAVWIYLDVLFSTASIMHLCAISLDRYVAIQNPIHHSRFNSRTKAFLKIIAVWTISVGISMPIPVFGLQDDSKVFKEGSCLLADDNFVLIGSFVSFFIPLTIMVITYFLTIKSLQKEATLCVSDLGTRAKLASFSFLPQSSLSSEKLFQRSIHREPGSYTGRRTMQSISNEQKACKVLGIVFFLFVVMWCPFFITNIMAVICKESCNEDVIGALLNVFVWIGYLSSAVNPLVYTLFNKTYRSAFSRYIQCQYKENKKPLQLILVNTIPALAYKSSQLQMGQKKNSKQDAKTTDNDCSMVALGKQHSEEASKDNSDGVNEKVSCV
T3 sequence (P50406 whole entry): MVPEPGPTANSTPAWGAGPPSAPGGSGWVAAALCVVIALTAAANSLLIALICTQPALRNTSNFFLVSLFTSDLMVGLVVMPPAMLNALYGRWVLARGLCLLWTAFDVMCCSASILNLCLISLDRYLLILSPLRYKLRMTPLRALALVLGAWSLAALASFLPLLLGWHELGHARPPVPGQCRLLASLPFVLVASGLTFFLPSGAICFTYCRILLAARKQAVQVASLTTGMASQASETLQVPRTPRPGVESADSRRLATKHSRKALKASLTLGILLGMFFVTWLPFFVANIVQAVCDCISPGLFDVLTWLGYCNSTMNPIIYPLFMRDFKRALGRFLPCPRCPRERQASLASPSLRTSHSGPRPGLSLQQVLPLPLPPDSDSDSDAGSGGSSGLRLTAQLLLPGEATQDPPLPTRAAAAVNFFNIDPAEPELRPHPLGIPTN

Row | Structure (SMILES) | Ki [1] | Ki [2] | Ki [3] | Ki [4] | Ki [5]
1 | CC(=O)Nc1ccc(NC(=O)NC(=N)NCc2cccc3ccccc23)cc1 [Example 1, N-(4-{[({Imino[(1-naphthylmethyl)amino]methyl}amino)carbonyl]amino}phenyl)acetamide] | 220 nM | 1 nM | 2500 nM | 13 nM | 1770 nM
2 | CC(=O)NC(=N)NCc1cccc2ccccc12 [Example 3, N-Acetyl-N′-(1-naphthylmethyl)guanidine] | 1530 nM | 8 nM | 2720 nM | 100 nM | > 2500 nM
3 | N=C(NCc1cccc2ccccc12)NC(=O)N[C@H](CO)c1ccccc1 [Example 15, 1-({[[({[(1S)-2-Hydroxy-1-phenylethyl]amino}carbonyl)amino](imino)methyl]amino}methyl)naphthalene] | – | 0.4 nM | 170 nM | 2.6 nM | 290 nM
4 | N=C(NCc1cccc2ccccc12)NC(=O)NCc1cccnc1 [Example 18, 3-({[({Imino[(1-naphthylmethyl)amino]methyl}amino)carbonyl]amino}methyl)pyridine] | – | 0.43 nM | 350 nM | 17 nM | 1030 nM
5 | N=C(NCc1cccc2ccccc12)NC(=O)N[C@H]1c2ccccc2C[C@H]1O [Example 42, 1-({[[({[(1S,2R)-2-Hydroxy-2,3-dihydro-1H-inden-1-yl]amino}carbonyl)amino](imino)methyl]amino}methyl)naphthalene] | – | – | 1740 nM | 22 nM | 1250 nM
6 | N=C(NCc1cccc2ccccc12)NC(=O)NCc1c(N)cccc1F [Example 44, 1-({[({[(2-Amino-6-fluorobenzyl)amino]carbonyl}amino)(imino)methyl]amino}methyl)naphthalene] | – | – | 500 nM | 33 nM | 890 nM
7 | N=C(NCc1cccc2ccccc12)NC(=O)NCCSCc1c(F)cccc1Cl [Example 47, 1-[10-(2-Chloro-6-fluorophenyl)-3-imino-5-oxo-9-thia-2,4,6-triazadec-1-yl]naphthalene] | – | – | 530 nM | 120 nM | 860 nM
8 | CC(C)(CO)CNC(=O)NC(=N)NCc1cccc2ccccc12 [Example 48, 1-({[({[(3-Hydroxy-2,2-dimethylpropyl)amino]carbonyl}amino)(imino)methyl]amino}methyl)naphthalene] | – | – | 2620 nM | 9.8 nM | 1700 nM
9 | COc1cc(CNC(=O)NC(=N)NCc2cccc3ccccc23)cc(OC)c1OC [Example 49, 1-({[Imino({[(3,4,5-trimethoxybenzyl)amino]carbonyl}amino)methyl]amino}methyl)naphthalene] | – | – | 1130 nM | 30 nM | 830 nM
10 | N=C(NCc1cccc2ccccc12)NC(=O)NCC1CCN(Cc2cccc(C(F)(F)F)c2)CC1 [Example 57, 4-({[({Imino[(1-naphthylmethyl)amino]methyl}amino)carbonyl]amino}methyl)-1-[3-(trifluoromethyl)benzyl]piperidine] | – | 130 nM | – | 59 nM | 1570 nM
11 | N#Cc1ccc(CN2CCC(CNC(=O)NC(=N)NCc3cccc4ccccc34)CC2)cc1 [Example 59, 1-(4-Cyanobenzyl)-4-({[({imino[(1-naphthylmethyl)amino]methyl}amino)carbonyl]amino}methyl)piperidine] | – | 2.6 nM | – | 85 nM | > 2500 nM
12 | N=C(NCCc1ccccc1)NC(=O)N1CCN(Cc2ccccc2)CC1 [Example 61, N-[(4-Benzyl-1-piperazinyl)carbonyl]-N′-phenethylguanidine] | 930 nM | 1800 nM | – | 490 nM | > 2500 nM
13 | Cc1cc(C)cc(CN2CCC(CNC(=O)NC(=N)NCc3cccc4ccccc34)CC2)c1 [Example 62, 1-(3,5-Dimethylbenzyl)4-({[({imino[(1-naphthylmethyl)amino]methyl}amino)carbonyl]amino}methyl)piperidine] | – | 9.8 nM | – | 22 nM | 490 nM
14 | N=C(NCc1cccc2ccccc12)NC(=O)NCC1CCN(Cc2noc(-c3ccccc3)n2)CC1 [Example 64, 4-({[({Imino[(1-naphthylmethyl)amino]methyl}amino)carbonyl]amino}methyl)-1-[(5-phenyl-1,2,4-oxadiazol-3-yl)methyl]piperidine] | – | 4.2 nM | – | 91 nM | > 2500 nM
15 | N=C(NCc1cccc2ccccc12)NC(=O)NCC1CCN(Cc2cccc3ccccc23)CC1 [Example 69, 4-({[({Imino[(1-naphthylmethyl)amino]methyl}amino)carbonyl]amino}methyl)-1-(1-naphthylmethyl)piperidine] | – | 11 nM | – | 27 nM | 720 nM
16 | CCOc1ccccc1CNC(=N)NC(=O)NC [Example 84, 1-Ethoxy-2-{[(imino{[(methylamino)carbonyl]amino}methyl)amino]methyl}benzene] | > 4000 nM | 400 nM | 8660 nM | – | > 2500 nM
